In ChEMBL document CHEMBL5715954, “Silencing c-Myc translation as a therapeutic strategy through targeting PI3Kδ and CK1ε in hematological malignancies” (Blood, 2017):

How the values were obtained:
Design in all cases: scale not given: the % may be the effect or the level left
[1] = target: Non-receptor tyrosine-protein kinase TYK2 (Homo sapiens) (UniProt P29597); experiment: Inhibition of human TYK2 assessed as enzyme activity at 1 uM using KKSRGDYMTMQIG as substrate preincubated for 20 mins followed by [gamma-33P]-ATP addition and measured after 120 mins by radiometric Hot-SpotSM Kinase assay relative to control
[2] = target: T1, MAP kinase-activated protein kinase 5 (Homo sapiens) (UniProt Q8IW41); experiment: Inhibition of human MAPKAPK5 assessed as enzyme activity at 1 uM using KKLNRTLSVA as substrate preincubated for 20 mins followed by [gamma-33P]-ATP addition and measured after 120 mins by radiometric Hot-SpotSM Kinase assay relative to control
T1 sequence (whole entry): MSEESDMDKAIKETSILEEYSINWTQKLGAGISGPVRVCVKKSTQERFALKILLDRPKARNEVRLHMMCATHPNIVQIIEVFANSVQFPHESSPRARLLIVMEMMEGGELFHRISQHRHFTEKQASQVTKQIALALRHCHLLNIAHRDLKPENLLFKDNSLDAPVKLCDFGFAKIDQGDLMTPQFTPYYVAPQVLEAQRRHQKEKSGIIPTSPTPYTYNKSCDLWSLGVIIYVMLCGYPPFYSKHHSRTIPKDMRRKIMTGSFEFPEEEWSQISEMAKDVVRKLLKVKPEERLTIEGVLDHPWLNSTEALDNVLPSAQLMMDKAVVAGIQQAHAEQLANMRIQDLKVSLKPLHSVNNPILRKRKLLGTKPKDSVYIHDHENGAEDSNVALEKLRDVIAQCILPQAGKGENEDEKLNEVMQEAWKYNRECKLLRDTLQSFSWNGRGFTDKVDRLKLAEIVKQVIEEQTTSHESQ

[3] = target: Serine/threonine-protein kinase PAK 5 (Homo sapiens) (UniProt Q9P286); experiment: Inhibition of human PAK5 assessed as enzyme activity at 1 uM using RRRLSFAEPG as substrate preincubated for 20 mins followed by [gamma-33P]-ATP addition and measured after 120 mins by radiometric Hot-SpotSM Kinase assay relative to control
Serine/threonine-protein kinase PAK 5 (Homo sapiens), sequence (Q9P286 whole entry, looked up): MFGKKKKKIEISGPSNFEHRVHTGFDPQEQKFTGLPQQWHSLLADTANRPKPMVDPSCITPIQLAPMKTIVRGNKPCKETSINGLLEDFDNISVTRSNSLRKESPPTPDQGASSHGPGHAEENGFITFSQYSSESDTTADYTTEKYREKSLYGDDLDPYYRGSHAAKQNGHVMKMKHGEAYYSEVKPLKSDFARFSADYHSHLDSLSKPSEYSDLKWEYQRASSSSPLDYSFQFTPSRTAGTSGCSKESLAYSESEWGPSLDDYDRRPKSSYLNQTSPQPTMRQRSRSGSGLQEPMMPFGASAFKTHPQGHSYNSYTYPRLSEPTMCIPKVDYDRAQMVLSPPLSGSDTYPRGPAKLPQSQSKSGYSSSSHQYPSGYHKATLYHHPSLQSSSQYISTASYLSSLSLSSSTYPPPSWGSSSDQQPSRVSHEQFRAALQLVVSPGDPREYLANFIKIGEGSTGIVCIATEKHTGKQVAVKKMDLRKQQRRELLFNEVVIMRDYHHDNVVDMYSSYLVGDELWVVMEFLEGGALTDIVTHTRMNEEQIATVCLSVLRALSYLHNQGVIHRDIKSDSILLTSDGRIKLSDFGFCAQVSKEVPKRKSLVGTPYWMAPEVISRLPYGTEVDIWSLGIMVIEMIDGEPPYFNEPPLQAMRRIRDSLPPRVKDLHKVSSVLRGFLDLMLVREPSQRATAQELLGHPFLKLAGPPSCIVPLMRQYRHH

[4] = target: Tyrosine-protein kinase Fer (Homo sapiens) (UniProt P16591); experiment: Inhibition of human FER assessed as enzyme activity at 1 uM using poly[Glu:Tyr] (4:1) as substrate preincubated for 20 mins followed by [gamma-33P]-ATP addition and measured after 120 mins by radiometric Hot-SpotSM Kinase assay relative to control
Tyrosine-protein kinase Fer (Homo sapiens), sequence (P16591 whole entry, looked up): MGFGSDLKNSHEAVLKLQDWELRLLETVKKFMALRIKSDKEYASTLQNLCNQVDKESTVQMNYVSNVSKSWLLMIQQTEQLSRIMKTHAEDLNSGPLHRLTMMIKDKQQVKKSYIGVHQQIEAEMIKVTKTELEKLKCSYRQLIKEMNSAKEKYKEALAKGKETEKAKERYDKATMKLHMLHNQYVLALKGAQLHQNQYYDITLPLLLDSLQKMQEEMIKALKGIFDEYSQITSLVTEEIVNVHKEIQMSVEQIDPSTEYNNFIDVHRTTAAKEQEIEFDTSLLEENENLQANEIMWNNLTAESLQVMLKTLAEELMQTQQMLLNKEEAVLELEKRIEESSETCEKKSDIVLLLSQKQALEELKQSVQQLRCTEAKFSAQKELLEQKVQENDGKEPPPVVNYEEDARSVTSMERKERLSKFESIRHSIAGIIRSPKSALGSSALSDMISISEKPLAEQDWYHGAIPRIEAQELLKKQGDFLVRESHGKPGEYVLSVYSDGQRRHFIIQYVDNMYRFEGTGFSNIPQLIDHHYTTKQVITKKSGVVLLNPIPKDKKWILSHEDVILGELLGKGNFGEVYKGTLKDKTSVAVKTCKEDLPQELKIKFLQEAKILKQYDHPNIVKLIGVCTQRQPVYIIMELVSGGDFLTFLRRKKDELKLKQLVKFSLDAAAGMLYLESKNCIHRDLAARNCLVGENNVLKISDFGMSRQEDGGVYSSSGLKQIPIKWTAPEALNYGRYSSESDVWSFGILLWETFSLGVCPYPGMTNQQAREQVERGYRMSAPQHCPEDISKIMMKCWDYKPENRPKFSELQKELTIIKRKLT

[5] = target: T2, Serine/threonine-protein kinase TBK1 (Homo sapiens) (UniProt Q9UHD2); experiment: Inhibition of human TBK1 assessed as enzyme activity at 1 uM using myelin basic protein as substrate preincubated for 20 mins followed by [gamma-33P]-ATP addition and measured after 120 mins by radiometric Hot-SpotSM Kinase assay relative to control
T2 sequence (whole entry): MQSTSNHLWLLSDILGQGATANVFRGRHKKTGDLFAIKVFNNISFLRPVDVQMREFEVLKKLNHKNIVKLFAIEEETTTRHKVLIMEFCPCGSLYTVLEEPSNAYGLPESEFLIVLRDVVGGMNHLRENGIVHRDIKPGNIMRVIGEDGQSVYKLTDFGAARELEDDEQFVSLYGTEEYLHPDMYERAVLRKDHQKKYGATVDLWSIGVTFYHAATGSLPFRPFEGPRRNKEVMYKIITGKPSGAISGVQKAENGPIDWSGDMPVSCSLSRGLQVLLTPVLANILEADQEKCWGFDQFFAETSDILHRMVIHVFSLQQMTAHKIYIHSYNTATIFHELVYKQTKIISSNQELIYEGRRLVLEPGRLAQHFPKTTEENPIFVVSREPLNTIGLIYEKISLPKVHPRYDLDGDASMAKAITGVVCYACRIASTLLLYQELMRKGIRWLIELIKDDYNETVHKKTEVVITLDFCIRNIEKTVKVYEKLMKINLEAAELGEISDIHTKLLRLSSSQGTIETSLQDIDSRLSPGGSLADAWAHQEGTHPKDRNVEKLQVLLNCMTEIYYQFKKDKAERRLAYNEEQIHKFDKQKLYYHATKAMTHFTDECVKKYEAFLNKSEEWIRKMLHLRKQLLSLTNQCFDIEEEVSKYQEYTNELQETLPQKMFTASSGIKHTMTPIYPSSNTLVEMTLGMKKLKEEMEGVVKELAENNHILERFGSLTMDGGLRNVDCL

[6] = target: Serine/threonine-protein kinase Nek4 (Homo sapiens) (UniProt P51957); experiment: Inhibition of human NEK4 assessed as enzyme activity at 1 uM using myelin basic protein as substrate preincubated for 20 mins followed by [gamma-33P]-ATP addition and measured after 120 mins by radiometric Hot-SpotSM Kinase assay relative to control
Serine/threonine-protein kinase Nek4 (Homo sapiens), sequence (P51957 whole entry, looked up): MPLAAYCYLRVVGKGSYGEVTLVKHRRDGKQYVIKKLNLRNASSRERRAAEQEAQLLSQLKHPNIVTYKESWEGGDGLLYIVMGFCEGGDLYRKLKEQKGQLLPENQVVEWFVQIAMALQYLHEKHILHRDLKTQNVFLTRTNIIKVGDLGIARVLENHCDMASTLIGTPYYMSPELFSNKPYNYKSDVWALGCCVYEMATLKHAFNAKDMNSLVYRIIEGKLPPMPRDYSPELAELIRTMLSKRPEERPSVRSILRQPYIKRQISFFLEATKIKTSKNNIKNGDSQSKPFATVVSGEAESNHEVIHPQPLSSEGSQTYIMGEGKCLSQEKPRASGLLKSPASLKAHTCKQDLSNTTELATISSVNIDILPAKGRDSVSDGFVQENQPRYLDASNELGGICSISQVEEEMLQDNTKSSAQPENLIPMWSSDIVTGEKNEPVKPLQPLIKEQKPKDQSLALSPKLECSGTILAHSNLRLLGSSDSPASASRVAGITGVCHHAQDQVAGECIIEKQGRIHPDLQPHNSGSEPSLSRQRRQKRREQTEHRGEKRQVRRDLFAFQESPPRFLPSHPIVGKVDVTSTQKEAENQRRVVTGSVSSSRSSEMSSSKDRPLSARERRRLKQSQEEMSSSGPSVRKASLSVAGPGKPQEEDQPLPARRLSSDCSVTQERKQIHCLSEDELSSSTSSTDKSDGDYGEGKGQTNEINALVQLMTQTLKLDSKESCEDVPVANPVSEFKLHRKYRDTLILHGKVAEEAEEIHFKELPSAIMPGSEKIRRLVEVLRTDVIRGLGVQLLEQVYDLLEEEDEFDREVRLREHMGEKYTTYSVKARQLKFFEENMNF

[7] = target: Glycogen synthase kinase-3 alpha (Homo sapiens) (UniProt P49840); experiment: Inhibition of human GSK3a assessed as enzyme activity at 1 uM using YRRAAVPPSPSLSRHSSPHQ(pS)EDEEE as substrate preincubated for 20 mins followed by [gamma-33P]-ATP addition and measured after 120 mins by radiometric Hot-SpotSM Kinase assay relative to control
Glycogen synthase kinase-3 alpha (Homo sapiens), sequence (P49840 2-483 limits assumed): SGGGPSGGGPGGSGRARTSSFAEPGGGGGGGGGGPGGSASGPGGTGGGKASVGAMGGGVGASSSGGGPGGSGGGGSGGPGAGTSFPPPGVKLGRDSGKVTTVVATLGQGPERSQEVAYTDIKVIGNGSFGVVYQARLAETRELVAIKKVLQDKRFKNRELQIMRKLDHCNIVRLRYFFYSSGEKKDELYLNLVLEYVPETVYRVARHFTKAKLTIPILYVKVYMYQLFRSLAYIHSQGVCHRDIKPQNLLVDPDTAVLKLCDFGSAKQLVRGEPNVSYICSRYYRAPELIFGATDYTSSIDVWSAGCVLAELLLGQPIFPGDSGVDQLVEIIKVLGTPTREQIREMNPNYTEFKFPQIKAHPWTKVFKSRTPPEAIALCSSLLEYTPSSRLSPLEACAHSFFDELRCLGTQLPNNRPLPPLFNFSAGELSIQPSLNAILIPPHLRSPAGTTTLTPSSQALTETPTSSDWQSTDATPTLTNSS

[8] = target: Protein kinase C eta type (Homo sapiens) (UniProt P24723); experiment: Inhibition of human PKCeta assessed as enzyme activity at 1 uM using ERMRPRKRQGSVRRRV as substrate preincubated for 20 mins followed by [gamma-33P]-ATP addition and measured after 120 mins by radiometric Hot-SpotSM Kinase assay relative to control
Protein kinase C eta type (Homo sapiens), sequence (P24723 whole entry): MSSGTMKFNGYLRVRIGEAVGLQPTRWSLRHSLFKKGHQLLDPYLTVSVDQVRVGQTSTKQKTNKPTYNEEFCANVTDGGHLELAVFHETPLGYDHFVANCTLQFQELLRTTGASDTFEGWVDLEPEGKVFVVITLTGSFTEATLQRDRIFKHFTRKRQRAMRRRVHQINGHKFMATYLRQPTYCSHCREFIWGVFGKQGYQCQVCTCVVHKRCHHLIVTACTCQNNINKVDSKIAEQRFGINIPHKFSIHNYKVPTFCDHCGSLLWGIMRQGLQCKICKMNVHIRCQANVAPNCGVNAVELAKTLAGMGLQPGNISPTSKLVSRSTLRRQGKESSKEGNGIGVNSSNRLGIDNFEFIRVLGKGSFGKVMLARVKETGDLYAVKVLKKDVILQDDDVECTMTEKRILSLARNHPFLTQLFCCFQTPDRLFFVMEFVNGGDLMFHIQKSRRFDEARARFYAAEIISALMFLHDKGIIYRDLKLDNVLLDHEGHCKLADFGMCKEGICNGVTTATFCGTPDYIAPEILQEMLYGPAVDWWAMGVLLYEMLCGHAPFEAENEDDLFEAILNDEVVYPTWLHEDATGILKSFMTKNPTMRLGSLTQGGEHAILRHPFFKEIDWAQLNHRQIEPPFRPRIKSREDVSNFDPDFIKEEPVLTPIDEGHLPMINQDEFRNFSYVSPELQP

[9] = target: Fibroblast growth factor receptor 1 (Homo sapiens) (UniProt P11362); experiment: Inhibition of human FGFR1 assessed as enzyme activity at 1 uM using poly[Glu:Tyr] (4:1) as substrate preincubated for 20 mins followed by [gamma-33P]-ATP addition and measured after 120 mins by radiometric Hot-SpotSM Kinase assay relative to control
Fibroblast growth factor receptor 1 (Homo sapiens), sequence (P11362 22-822 limits assumed): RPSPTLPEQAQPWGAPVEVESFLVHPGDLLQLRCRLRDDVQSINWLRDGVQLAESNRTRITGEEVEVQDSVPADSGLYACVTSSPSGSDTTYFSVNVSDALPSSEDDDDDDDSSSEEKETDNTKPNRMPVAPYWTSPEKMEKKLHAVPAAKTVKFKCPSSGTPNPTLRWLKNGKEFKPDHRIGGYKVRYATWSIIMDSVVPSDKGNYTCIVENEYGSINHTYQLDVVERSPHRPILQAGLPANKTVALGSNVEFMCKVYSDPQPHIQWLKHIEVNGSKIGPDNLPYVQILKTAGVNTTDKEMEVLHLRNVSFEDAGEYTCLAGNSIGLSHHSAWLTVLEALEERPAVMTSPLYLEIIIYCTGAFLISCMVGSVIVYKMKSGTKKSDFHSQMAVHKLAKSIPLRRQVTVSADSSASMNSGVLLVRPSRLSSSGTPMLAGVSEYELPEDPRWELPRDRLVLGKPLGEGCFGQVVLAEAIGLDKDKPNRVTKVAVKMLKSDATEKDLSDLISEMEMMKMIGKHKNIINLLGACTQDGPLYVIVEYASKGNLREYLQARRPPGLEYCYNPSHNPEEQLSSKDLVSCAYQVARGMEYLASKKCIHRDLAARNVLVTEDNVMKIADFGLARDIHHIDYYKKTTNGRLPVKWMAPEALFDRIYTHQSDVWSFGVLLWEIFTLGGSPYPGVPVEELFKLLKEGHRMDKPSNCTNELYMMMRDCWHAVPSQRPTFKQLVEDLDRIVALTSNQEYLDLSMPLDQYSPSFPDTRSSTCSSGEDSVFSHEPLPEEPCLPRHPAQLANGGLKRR

[10] = target: Inactive tyrosine-protein kinase PEAK1 (Homo sapiens) (UniProt Q9H792); experiment: Inhibition of human PEAK1 assessed as enzyme activity at 1 uM using poly[Glu:Tyr] (4:1) as substrate preincubated for 20 mins followed by [gamma-33P]-ATP addition and measured after 120 mins by radiometric Hot-SpotSM Kinase assay relative to control
[11] = target: MAP kinase-interacting serine/threonine-protein kinase 1 (Homo sapiens) (UniProt Q9BUB5); experiment: Inhibition of human MNK1 assessed as enzyme activity at 1 uM using myelin basic protein as substrate preincubated for 20 mins followed by [gamma-33P]-ATP addition and measured after 120 mins by radiometric Hot-SpotSM Kinase assay relative to control
MAP kinase-interacting serine/threonine-protein kinase 1 (Homo sapiens), sequence (Q9BUB5 whole entry, looked up): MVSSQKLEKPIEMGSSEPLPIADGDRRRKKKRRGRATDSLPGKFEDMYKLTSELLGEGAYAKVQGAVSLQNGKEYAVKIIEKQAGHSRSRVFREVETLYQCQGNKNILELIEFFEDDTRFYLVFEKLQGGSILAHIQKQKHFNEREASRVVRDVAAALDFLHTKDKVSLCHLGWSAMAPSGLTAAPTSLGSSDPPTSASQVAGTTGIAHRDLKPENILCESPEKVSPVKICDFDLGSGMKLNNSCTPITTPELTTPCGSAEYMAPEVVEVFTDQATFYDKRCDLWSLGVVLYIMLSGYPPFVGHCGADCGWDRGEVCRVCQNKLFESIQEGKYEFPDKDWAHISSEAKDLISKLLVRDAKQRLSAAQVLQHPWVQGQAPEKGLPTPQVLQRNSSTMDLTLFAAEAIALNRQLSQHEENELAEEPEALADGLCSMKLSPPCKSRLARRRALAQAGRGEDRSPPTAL

C[C@H](Nc1ncnc2nc[nH]c12)c1cc2cccc(Cl)c2c(=O)n1-c1ccccc1
Activity [1]: 96.3%
Activity [2]: 99%
Activity [3]: 101%
Activity [4]: 91.7%
Activity [5]: 94.4%
Activity [6]: 92.2%
Activity [7]: 95.3%
Activity [8]: 87.7%
Activity [9]: 95.7%
Activity [10]: 89.4%
Activity [11]: 93.5%

CC[C@H](Nc1ncnc2[nH]cnc12)c1nc2cccc(F)c2c(=O)n1-c1ccccc1
Activity [1]: 96.6%
Activity [2]: 99.5%
Activity [3]: 101%
Activity [4]: 97.2%
Activity [5]: 89.6%
Activity [6]: 95.5%
Activity [7]: 93.7%
Activity [8]: 88.5%
Activity [9]: 98%
Activity [10]: 93.3%
Activity [11]: 96.3%

CC(C)Oc1ccc(-c2nn([C@@H](C)c3oc4ccc(F)cc4c(=O)c3-c3cccc(F)c3)c3ncnc(N)c23)cc1F [UMBRALISIB]
Activity [1]: 102%
Activity [2]: 104%
Activity [3]: 96.4%
Activity [4]: 94.5%
Activity [5]: 93.9%
Activity [6]: 87.8%
Activity [7]: 104%
Activity [8]: 88.4%
Activity [9]: 99.5%
Activity [10]: 95%
Activity [11]: 92%
